From ChEMBL document CHEMBL3600362, “Synthesis of CNS active thyrotropin-releasing hormone (TRH)-like peptides: Biological evaluation and effect on cognitive impairment induced by cerebral ischemia in mice” (Bioorg Med Chem, 2015)

Columns and labels:
Mus musculus = assay: Reduction in pentobarbital-induced sleeping time in Swiss mouse at 10 umol/kg, iv; format: functional
HEK293 = assay: Selectivity index, ratio of EC50 for agonist activity at mouse TRH-R1 expressed in HEK293 cells to EC50 for agonist activity at mouse TRH-R2 expressed in HEK293 cells; format: cell-based
[1] = target: T1, Thyrotropin-releasing hormone receptor (Mus musculus, UniProt P21761); assay: Agonist activity at mouse TRH-R1 expressed in HEK293 cells assessed as induction of changes in intracellular Ca2+ level by FLIPR method; format: functional, cell-based
T1 sequence (P21761 whole entry): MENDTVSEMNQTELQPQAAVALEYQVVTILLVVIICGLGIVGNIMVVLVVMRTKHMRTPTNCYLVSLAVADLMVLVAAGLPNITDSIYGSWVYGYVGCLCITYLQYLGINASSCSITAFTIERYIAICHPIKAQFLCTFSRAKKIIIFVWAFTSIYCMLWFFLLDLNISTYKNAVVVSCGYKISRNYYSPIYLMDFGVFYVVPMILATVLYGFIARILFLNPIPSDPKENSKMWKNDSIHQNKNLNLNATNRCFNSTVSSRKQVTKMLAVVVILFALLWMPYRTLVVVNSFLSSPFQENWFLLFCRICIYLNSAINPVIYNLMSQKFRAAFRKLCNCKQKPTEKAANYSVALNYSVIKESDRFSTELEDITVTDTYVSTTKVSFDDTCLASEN

[2] = target: T2, Thyrotropin-releasing hormone receptor 2 (Mus musculus, UniProt Q9ERT1); assay: Agonist activity at mouse TRH-R2 expressed in HEK293 cells assessed as induction of changes in intracellular Ca2+ level by FLIPR method; format: functional, cell-based
T2 sequence (Q9ERT1 whole entry): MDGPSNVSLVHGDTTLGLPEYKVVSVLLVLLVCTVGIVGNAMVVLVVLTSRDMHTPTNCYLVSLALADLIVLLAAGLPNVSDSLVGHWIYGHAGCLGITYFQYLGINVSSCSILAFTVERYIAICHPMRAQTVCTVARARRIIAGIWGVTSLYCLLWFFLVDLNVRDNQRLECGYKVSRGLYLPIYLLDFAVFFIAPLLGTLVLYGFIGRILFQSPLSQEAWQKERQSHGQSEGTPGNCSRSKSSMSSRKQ

[3] = target: T2, Thyrotropin-releasing hormone receptor 2; assay: Displacement of [3H]-1-MeHis-TRH from mouse TRH-R2 expressed in HEK293 cells incubated up to 4 hrs by scintillation counting method; format: cell-based
[4] = target: T1, Thyrotropin-releasing hormone receptor; assay: Displacement of [3H]-1-MeHis-TRH from mouse TRH-R1 expressed in HEK293 cells incubated up to 4 hrs by scintillation counting method; format: cell-based
[5] = Half life in human plasma; format: ADME, cell-free
TRH-degrading ectoenzyme = target: T3, TRH-degrading ectoenzyme (Mus musculus, UniProt Q8K093); assay: Stability assessed as mouse recombinant TRH-degrading ectoenzyme-mediated compound degradation at 1 mM measured within 18 hrs by HPLC method; format: ADME; settings: read-out: Drug degradation
T3 sequence (Q8K093 whole entry): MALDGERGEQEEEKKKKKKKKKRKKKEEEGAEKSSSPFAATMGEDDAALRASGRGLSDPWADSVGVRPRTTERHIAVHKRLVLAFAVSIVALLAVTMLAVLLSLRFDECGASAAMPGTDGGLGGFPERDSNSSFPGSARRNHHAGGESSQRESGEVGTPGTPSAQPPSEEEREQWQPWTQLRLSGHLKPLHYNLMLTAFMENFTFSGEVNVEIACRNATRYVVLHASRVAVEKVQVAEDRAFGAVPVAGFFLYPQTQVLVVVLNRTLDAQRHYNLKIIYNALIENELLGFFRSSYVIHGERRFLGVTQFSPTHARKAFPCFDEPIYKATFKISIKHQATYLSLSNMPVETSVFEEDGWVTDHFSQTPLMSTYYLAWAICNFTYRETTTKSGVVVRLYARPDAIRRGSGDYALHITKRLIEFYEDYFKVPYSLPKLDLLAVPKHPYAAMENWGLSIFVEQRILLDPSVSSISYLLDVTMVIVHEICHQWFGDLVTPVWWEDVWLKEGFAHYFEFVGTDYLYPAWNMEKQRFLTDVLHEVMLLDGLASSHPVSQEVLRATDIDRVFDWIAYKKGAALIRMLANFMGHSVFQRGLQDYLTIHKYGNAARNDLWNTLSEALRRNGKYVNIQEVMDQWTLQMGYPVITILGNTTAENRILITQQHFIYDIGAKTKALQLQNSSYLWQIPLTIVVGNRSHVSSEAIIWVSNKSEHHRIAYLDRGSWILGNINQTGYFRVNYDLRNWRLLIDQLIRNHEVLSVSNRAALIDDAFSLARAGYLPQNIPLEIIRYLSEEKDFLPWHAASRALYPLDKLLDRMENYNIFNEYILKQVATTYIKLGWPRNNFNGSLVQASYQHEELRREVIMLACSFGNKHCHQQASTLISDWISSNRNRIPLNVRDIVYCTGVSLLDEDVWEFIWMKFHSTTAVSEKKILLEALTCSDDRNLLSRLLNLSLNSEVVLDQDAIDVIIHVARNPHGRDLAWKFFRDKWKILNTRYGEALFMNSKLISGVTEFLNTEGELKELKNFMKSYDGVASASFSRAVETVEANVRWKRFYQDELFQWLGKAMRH

Row | SMILES | inhibition in vivo at 10 µmol/kg (Mus musculus) [%] | Ratio EC50 (HEK293) | EC50 ([1]; hek293) [nM] | EC50 [2] [nM] | IC50 [3] [nM] | EC50 [1] [nM] | IC50 [4] [nM] | half-life [5] [min] | metabolised at 18 h, 1000 µM (TRH-degrading ectoenzyme) [%]
1 | NC(=O)[C@@H]1CCCN1C(=O)[C@H](Cc1c[nH]cn1)NC(=O)[C@@H]1CCC(=O)N1 [PROTIRELIN] | 51.1 | 1.9 | 1 |  |  |  |  |  | 
2 | NC(=O)[C@@H]1CCCN1C(=O)[C@H](Cc1nc[nH]c1Cl)NC(=O)c1cnccn1 | 29.8 | 36.5 |  | 530 | > 50000 | 19300 | > 50000 |  | 
3 | CCCc1nc(C[C@H](NC(=O)c2nccnc2N)C(=O)N2CCC[C@H]2C(N)=O)c[nH]1 | 52.2 | 10.5 |  | 120 | > 50000 | 1560 | > 50000 |  | 
4 | CCCc1nc(C[C@H](NC(=O)c2cnccn2)C(=O)N2CCC[C@H]2C(N)=O)c[nH]1 | 63.6 | 2.5 |  | 60 | > 50000 | 150 | > 50000 |  | 
5 | Cn1cnc(C[C@H](NC(=O)c2cnccn2)C(=O)N2CCC[C@H]2C(N)=O)c1Br | 32.3 | 11.3 |  | 30 | > 50000 | 340 | > 50000 |  | 
6 | CC(C)c1nc(C[C@H](NC(=O)C2CCCCN2)C(=O)N2CCC[C@H]2C(N)=O)c[nH]1 (single isomer, unassigned) | 42.7 | 1.3 |  | 770 | > 50000 | 1000 | > 50000 |  | 
7 | NC(=O)[C@@H]1CCCN1C(=O)[C@H](Cc1nc[nH]c1Br)NC(=O)c1nccnc1N | 29.5 | 47.8 |  | 6 | > 50000 | 287 | > 50000 |  | 
8 | NC(=O)[C@@H]1CCCN1C(=O)[C@H](Cc1nc(Br)[nH]c1Br)NC(=O)c1nccnc1N | 12.2 | 4.8 |  | 290 | > 50000 | 1410 | > 50000 |  | 
9 | CCn1c(I)nc(C[C@H](NC(=O)c2cnccn2)C(=O)N2CCC[C@H]2C(N)=O)c1I | 1.8 | 7.5 |  | 960 | > 50000 | 7210 | > 50000 |  | 
10 | CCCc1nc(C[C@H](NC(=O)C2CCCCN2)C(=O)N2CCC[C@H]2C(N)=O)c[nH]1 (single isomer, unassigned) | 67.4 | 235 |  | 4 | > 50000 | 940 | > 50000 |  | 
11 | NC(=O)[C@@H]1CCCN1C(=O)[C@H](Cc1nc(I)[nH]c1I)NC(=O)c1cnccn1 | 1.5 | 36.3 |  | 310 | > 50000 | 11300 | > 50000 |  | 
12 | Cc1cnc(C(=O)N[C@@H](Cc2nc(Br)[nH]c2Br)C(=O)N2CCC[C@H]2C(N)=O)cn1 | 29 | 0.77 |  | 100 | > 50000 | 77 | > 50000 |  | 
13 | NC(=O)[C@@H]1CCCN1C(=O)[C@H](Cc1nc(I)n(Cc2ccccc2)c1I)NC(=O)c1cnccn1 | 74.8 | 32.6 |  | 30 | > 50000 | 980 | > 50000 |  | 
14 | Cc1cnc(C(=O)N[C@@H](Cc2nc[nH]c2Br)C(=O)N2CCC[C@H]2C(N)=O)cn1 | 23.2 | 12.4 |  | 40 | > 50000 | 498 | > 50000 |  | 
15 | Cc1cnc(C(=O)N[C@@H](Cc2nc(I)n(Cc3ccccc3)c2I)C(=O)N2CCC[C@H]2C(N)=O)cn1 | 50.1 | 14.8 |  | 50 | > 50000 | 740 | > 50000 |  | 
16 | CCCc1nc(C[C@H](NC(=O)c2cnc(C)cn2)C(=O)N2CCC[C@H]2C(N)=O)c[nH]1 | 4.1 | 1.1 |  | 15 | > 50000 | 17 | > 50000 |  | 
17 | NC(=O)[C@@H]1CCCN1C(=O)[C@H](Cc1nc[nH]c1Br)NC(=O)c1cnccn1 | 32.8 | 82.9 |  | 48 | > 50000 | 3980 | > 50000 |  | 
18 | NC(=O)[C@@H]1CCCN1C(=O)[C@H](Cc1cnc[nH]1)NC(=O)[C@@H]1CCC(=O)N1 [PROTIRELIN] |  |  |  | 0.52 | 7 |  | 2.6 | 2 | 80
